Data taken from a melting point compilation (Tetko et al.).

settings: a range is the spread between reports

Point of comparison: `CCCNC(=O)NS(=O)(=O)c1ccc(Cl)cc1`, melting point 128 °C. Against it:
- O=C(O)c1ccccc1Nc1ccccc1 — higher, 184 to 187 °C
- Cc1ccc([N+](=O)[O-])cc1N — lower, 106 to 108 °C
- O=C1C(F)=C(F)C(=O)C(F)=C1F — higher, 179 to 184 °C
- CCCCCCCC/C=C\CCCCCCCCCCCC(N)=O — lower, 77.5 to 79 °C
- Nc1ccccc1Br — lower, 29 to 32 °C
- N#CCc1cccc(Cl)c1 — lower, 11.5 to 12 °C
- O=c1[nH]c2ccccc2o1 — higher, 138 to 140 °C
- CC(C)C(N)=O — not separable, 128 to 129 °C
- c1ccc2c(c1)CCC2 — lower, -51.4 to -51 °C
- N#Cc1ccc(F)cc1 — lower, 34.8 to 36 °C
- CCCCCCCCCCCCCC(=O)CCCCCCCCCCCCC — lower, 77.5 to 78 °C
- COc1ccc(Cl)cc1Cl — lower, 26 to 28.5 °C
- CC(C)C(C)(C)O — lower, -14 to -10 °C
- CCCC1CCCC1 — lower, -117 °C
- CCCCCCCCC(C)O (centres undefined) — lower, -5 to -2 °C
- COC(C)OC — lower, -113 °C
- CCCC(=O)O — lower, -8 to -5 °C
- O=C(O)CCCCCCCCCCCCCCCO — lower, 98 to 99 °C
- c1ccc(-c2cccc(-c3ccccn3)n2)nc1 — lower, 90 to 91 °C
- O=C(O)c1ccccn1 — higher, 136 to 137 °C
- CCOC(=O)CCCCC(=O)OCC — lower, -20 to -18 °C
- O=[N+]([O-])c1cccc2ccccc12 — lower, 57 to 62 °C
- CC(C)(C)C(=O)CC#N — lower, 68 to 71 °C
- ICI — lower, 5 to 6.1 °C
- CCCCCCCCCCCCCO — lower, 32.5 to 34 °C
- CC(=O)CC(=O)c1ccccc1 — lower, 56 to 59 °C
- O=C(Cl)c1ccccc1Br — lower, 10 to 11 °C
- O=S(=O)(Cl)c1ccc(Cl)cc1 — lower, 51 to 52 °C
- COC(=O)c1ccc(OC)c(OC)c1 — lower, 59 to 60.8 °C
- CCN1CCOCC1 — lower, -64 to -63 °C
- O=C1CNC(=O)N1 — higher, 220 to 222 °C
- ClC/C=C/CCl — lower, 2 to 3.5 °C
- Cn1ccc(=O)n(C)c1=O — lower, 120 to 121 °C
- O=c1c2ccccc2sc2ccccc12 — higher, 209 to 212 °C
- Clc1ccc(C(c2ccccc2Cl)C(Cl)(Cl)Cl)cc1 (centres undefined) — lower, 74.2 to 75 °C
- O=C(CCl)c1ccccc1 — lower, 54 to 56.5 °C
- OCCc1ccc(O)cc1 — lower, 90 to 91 °C
- OCC(Cl)(Cl)Cl — lower, 18 to 19 °C
- CC(C)c1ccc(C(=O)O)cc1 — lower, 118 to 119 °C
- O=[N+]([O-])c1ccc(CCl)cc1 — lower, 71 to 73 °C
- O=C(O)c1ccc2ccccc2n1 — higher, 156 to 158 °C
- O=C(O)CCC(=O)O — higher, 185 to 188 °C
- CC(C)c1ccc(Cl)cc1 — lower, -12.3 to -12 °C
- Cc1ccc(C)s1 — lower, -63 to -62.6 °C
- CCCCC(=O)OCC — lower, -91.2 to -91 °C
- CC1(O)CCC(C(C)(C)O)CC1 (centres undefined) — higher, 158 °C
- CCCCCCCCCCCCCCCC(=O)OC — lower, 30 to 31 °C
- O=P(O)(O)c1ccccc1 — higher, 161 to 164 °C
- C=CCI — lower, -99.3 to -99 °C
- C#C — lower, -80.8 to -80.7 °C
- CC(=O)c1ccc2ccccc2c1 — lower, 53 to 56 °C
- O=C(O)Cc1cccc2ccccc12 — higher, 130 to 135 °C
- Ic1ccc(I)s1 — lower, 41 to 41.5 °C
- CN(C)C=O — lower, -61 to -60.4 °C
- O=Cc1cc(Br)c(O)c(Br)c1 — higher, 181 to 182 °C
- O=C1c2ccccc2C(=O)N1CCBr — lower, 82 to 82.5 °C
- CC=O — lower, -128 to -123 °C
- O=Cc1cccc([N+](=O)[O-])c1 — lower, 58 to 59 °C
- Nc1cc(Br)ccc1Br — lower, 51 to 54 °C
- Nc1cccc2ncccc12 — lower, 108 to 110 °C
- CC(C)CCCC(C)C1CCC2C3CC(O)C4(O)CC(O)CCC4(C)C3CCC12C (centres undefined) — higher, 237 to 238 °C
- CC1=NS(=O)(=O)c2cc(Cl)ccc2N1 — higher, 327 to 330 °C
- BrC(c1ccccc1)(c1ccccc1)c1ccccc1 — higher, 153 to 154 °C
- CC(=O)Nc1cccc(F)c1 — lower, 83 to 88 °C
- C#CCCO — lower, -63.6 to -63 °C
- Nc1ccc(C(=O)NCC(=O)O)cc1 — higher, 198 to 200 °C
- CC(C)c1cc(C(C)C)cc(C(C)C)c1 — lower, -7.4 to -7 °C
- c1ccc2c(c1)OCCOCCOCCOCCO2 — lower, 79 to 80 °C
- O=C(Nc1ccccc1)c1ccccc1 — higher, 163 to 164 °C
- CC(C)(C)c1cc(C(=O)O)cc(C(C)(C)C)c1O — higher, 208 °C
- OCc1ccc(Cl)cc1Cl — lower, 59 to 59.5 °C
- c1ccc2c(c1)Oc1ccccc1O2 — lower, 122 °C
- OCC(Br)(Br)Br — lower, 79 to 81 °C
- Cc1cc(O)cc(O)c1 — lower, 107 to 108 °C
- Oc1ccc(N=Nc2ccccc2)cc1 — higher, 154 to 155 °C
- NC(=S)NS(=O)(=O)c1ccc(N)cc1 — higher, 179 to 182 °C
- Nc1ccc(O)c([N+](=O)[O-])c1 — not separable, 126 to 129 °C
- CN(C)c1ccc(C(=O)O)cc1 — higher, 242 to 243 °C
- O=Cc1ccc(O)cc1 — lower, 117 to 118 °C
- N#CCc1ccc([N+](=O)[O-])cc1 — lower, 116 to 117 °C
- CC(=O)c1cc2ccccc2o1 — lower, 71 to 76 °C
- Cc1ccc(Cl)c(Cl)c1 — lower, -15.2 to -15 °C
- COc1cc(Cl)cc(OC)c1 — lower, 34 to 35 °C
- CC(=O)c1ccccc1 — lower, 19 to 20.5 °C
- CC(=O)Nc1c(C)cccc1C — higher, 181 to 183 °C
- CCCCCCCCOc1ccc(C(=O)O)cc1 — lower, 101 to 103 °C
- CCCCCCCCCCCCCCCCCCCCCCC — lower, 47.6 to 49 °C
- Oc1ccc(Oc2ccccc2)cc1 — lower, 80 to 84 °C
- CCCCCCCCCCCCCCCCCCCCO — lower, 64 to 66.1 °C
- Cc1ccc(C(=O)Cl)cc1 — lower, -3 to -2 °C
- C=CCOc1nc(OCC=C)nc(OCC=C)n1 — lower, 26 to 27 °C
- Oc1cc(Cl)c(Cl)cc1Cl — lower, 65.5 to 69 °C
- Cc1ccc(C)c(C(=O)O)c1 — higher, 132 to 134 °C
- CCCCCCCCCCCCS — lower, -8 to -7 °C
- COC(=O)CC(=O)OC — lower, -62 to -61.9 °C
- O=[N+]([O-])c1cc(S(=O)(=O)c2ccc(F)c([N+](=O)[O-])c2)ccc1F — higher, 194 °C
- O=C(c1ccco1)C(O)c1ccco1 (centres undefined) — higher, 136 to 138 °C
- NC1CCCC1 — lower, -85.7 to -82.7 °C
- N#Cc1ccccc1N — lower, 47 to 51 °C
- C=CC — lower, -185 °C
- CO[C@@H]1O[C@H](CO)[C@H](O)[C@H](O)[C@H]1O — higher, 172 to 177 °C
- FC(F)(F)c1ccccc1Cl — lower, -7.4 to -6 °C
- CCCCCCCCCCCCCCCC(C)C — lower, 5.7 to 6 °C
- O=C(O)/C=C/c1ccccc1[N+](=O)[O-] — higher, 244 to 247 °C
- CCCc1ccccc1 — lower, -100 to -99 °C
- Cc1cc(Cl)c(C)cc1Cl — lower, 68 to 71 °C
- CC(=O)c1cc(C)ccc1O — lower, 47 to 50 °C
- CCCCCCCCCCCCCCCCCCCCCC(=O)O — lower, 76 to 81 °C
- CCSSCC — lower, -102 °C
- C=C[Si]1(C)O[Si](C)(C=C)O[Si](C)(C=C)O[Si](C)(C=C)O1 (centres undefined) — lower, -43.5 to -43 °C
- Nc1c(Cl)cc([N+](=O)[O-])cc1[N+](=O)[O-] — higher, 154 to 157 °C
- Clc1cc(Cl)nc(Cl)n1 — lower, 22.5 to 23 °C
- CC1(C)COC(=O)C1O (centres undefined) — lower, 90 to 92 °C
- CCc1c(C)cccc1C — lower, -16.2 to -16 °C
- O=[N+]([O-])c1cc(C(F)(F)F)cc([N+](=O)[O-])c1Cl — lower, 56 to 57 °C
- NC(=O)c1ccc(N)cc1 — higher, 182 to 183 °C
- Nc1ccc(O)cc1 — higher, 188 to 189 °C
- Oc1ccccc1Br — lower, 5 to 5.6 °C
